In data set [1] the test system is capsaicin-induced hyperalgesia and allodynia. The settings on record: topical administration, humans; cited from earlier work.
The nature of data set [2]: Dynamic moisture-sorption (DMS) analysis. It is filed as physicochemical. On the procedure: A dynamic moisture-sorption (DMS) study was conducted using a dynamic moisture-sorption analyzer, VTI Corporation, SGA-100. The instrument was calibrated using polyvinyl pyrrolidone (PVP) and NaCl. Samples were prepared for DMS analysis by placing 5 mg to 20 mg of a sample in a tared sample holder. The sample was placed on the hang-down wire of the VTI balance. A drying step was run, typically at 40° C. and 0.5-1% RH for 1 h. The isotherm temperature is 25° C. Defined % RH holds typically ranged from 10% RH to 90% RH, with intervals of 10 to 20% RH. A % weight change smaller than 0.010% over 10 min, or up to 2 h, whichever occurred first, was required before continuing to the next % RH hold. The water content of the sample equilibrated as described above was determined at each % RH hold.

In data set [3] the test system is acute and chronic pain from chemical, mechanical, and thermal pain stimuli. To be noted: animal studies; cited from earlier work.
For data set [4], the system named is Monosodium iodoacetate-induced osteoarthritis rats. Description: Combination of Compound 699 and morphine in MIA-induced osteoarthritis pain, Von Frey test. It is filed as in vivo, rat. The settings on record: Von Frey one hour post-dosing.
The subject of data set [5] is STZ-induced PDPN model, diabetic and allodynic rats. Description: Streptozotocin-induced painful diabetic peripheral neuropathy (PDPN) model. The settings on record: 10 mg/kg orally in 0.5% methylcellulose; 1, 4 and 6 hours post-dosing; FIG. 13, 14. The format is in vivo, rat. On the procedure:
Male Sprague-Dawley rats were injected intraperitoneally with 50 mg/kg of streptozotocin (STZ) in sodium citrate buffer. 10% sucrose water was provided ad libitum for the first 48 hours post-STZ followed by regular drinking water. Rats were monitored once weekly for blood glucose levels and body weights. Development of tactile allodynia over time was analyzed using Von Frey filaments and a 50% withdrawal threshold was determined using Dixon's up-down procedure. […] Tactile allodynia was evaluated at 1, 4 and 6 hours post-dosing.

The target of a further data set is T1, human CB2 receptor (Homo sapiens, UniProt P34972).
T1 construct: CB2 was cloned into the pCMV-PK vector; 93-0164 (CHO-K1 EA-Arrestin parental cell line)
The experiment in a line: PathHunter β-arrestin assay, CB2 assay. The format is cell-based.

In data set [6] the test system is rats following ligation of spinal nerves. The settings on record: cited from earlier work.
The subject of data set [7] is carrageenan, capsaicin, and formalin models of inflammatory pain in rodents. The settings on record: systemic delivery; cited from earlier work.
Another data set concerns CB1. The settings on record: exogenous administration of a CB1 agonist; cited from earlier work.

The source of these data is patent US9492447B2, “Cannabinoid receptor modulators” (Arena Pharmaceuticals, Inc., priority 2011, dated 2016).

pEC50: −log10 of the molar value. “And” between values parts separate entries of the source, which are not always exact repeats. Identical values can stand only once.

T1 sequence (P34972 whole entry): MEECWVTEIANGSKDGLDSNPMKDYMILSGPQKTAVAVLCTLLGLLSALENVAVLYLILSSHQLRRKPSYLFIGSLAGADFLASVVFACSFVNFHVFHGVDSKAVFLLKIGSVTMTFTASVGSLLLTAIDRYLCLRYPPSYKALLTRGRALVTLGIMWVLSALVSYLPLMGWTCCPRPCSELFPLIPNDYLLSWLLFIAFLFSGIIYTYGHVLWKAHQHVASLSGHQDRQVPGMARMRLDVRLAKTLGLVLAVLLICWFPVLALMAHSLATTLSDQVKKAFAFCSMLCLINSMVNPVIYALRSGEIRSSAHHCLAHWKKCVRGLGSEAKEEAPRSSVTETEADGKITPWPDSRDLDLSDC
Sequence of CB1 (P47746 whole entry): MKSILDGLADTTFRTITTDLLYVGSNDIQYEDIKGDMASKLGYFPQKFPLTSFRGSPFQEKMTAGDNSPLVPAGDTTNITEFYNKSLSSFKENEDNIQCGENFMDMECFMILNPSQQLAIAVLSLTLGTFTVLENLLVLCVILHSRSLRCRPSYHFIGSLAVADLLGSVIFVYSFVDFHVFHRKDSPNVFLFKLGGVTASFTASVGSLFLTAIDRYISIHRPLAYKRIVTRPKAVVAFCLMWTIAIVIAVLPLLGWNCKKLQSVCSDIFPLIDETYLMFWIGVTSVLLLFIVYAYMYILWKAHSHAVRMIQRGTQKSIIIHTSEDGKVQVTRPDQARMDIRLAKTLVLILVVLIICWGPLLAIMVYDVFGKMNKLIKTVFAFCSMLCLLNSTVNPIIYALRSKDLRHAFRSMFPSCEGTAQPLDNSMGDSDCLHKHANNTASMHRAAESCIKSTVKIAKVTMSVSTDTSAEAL

`CCCCCCC(C)(C)c1cc(O)c2c(c1)OC(C)(C)[C@@H]1CC=C(CO)C[C@@H]21` [HU-210]: the “effect on capsaicin-induced hyperalgesia and allodynia” value in data set [1] was “attenuates capsaicin-induced hyperalgesia and allodynia”.
`CC(C)(C)[C@@H](CO)NC(=O)c1nn(-c2c[n+]([O-])ccn2)c2c1C[C@@H]1C[C@H]21` [Compound 699 (Anhydrous Form), (1aS,5aS)-2-(4-Oxy-pyrazin-2-yl)-1a,2,5,5a-tetrahydro-1H-2,3-diaza-cyclopropa[a]pentalene-4-carboxylic Acid ((S)-1-Hydroxymethyl-2,2-dimethyl-propyl)-amide]: the “Weight (% Change)” value in data set [2] (adsorption, sample RH 29.94 %, 25.32) was 0.151%; in data set [2] (adsorption, sample RH 49.86 %, 25.31), 0.282%; in [2] (adsorption, sample RH 69.77 %, 25.3), 0.482%; in [2] (adsorption, sample RH 79.70 %, 25.29) it was 0.581%; in data set [2] (adsorption, sample RH 89.72 %, 25.3), 0.762%; in [2] (desorption, sample RH 10.06 %, 25.29), 0.080%. The “Weight (% Change)” value was determined as 0.181% in data set [2] (desorption, sample RH 29.99 %, 25.29); 0.364% in [2] (desorption, sample RH 50.07 %, 25.3); 0.526% in data set [2] (desorption, sample RH 70.11 %, 25.30); 0% in data set [2] (sample RH […], 25.46, elapsed 46.6 min (after drying)).
With `Cc1c(C(=O)c2cccc3ccccc23)c2cccc3c2n1[C@H](CN1CCOCC1)CO3` [WIN 55212-2], the “effect against acute and chronic pain” value in [3] was “effective against acute and chronic pain”.
As to `CC(C)(C)[C@@H](CO)NC(=O)c1nn(-c2c[n+]([O-])ccn2)c2c1C[C@@H]1C[C@H]21` [Compound 699, (1aS,5aS)-2-(4-Oxy-pyrazin-2-yl)-1a,2,5,5a-tetrahydro-1H-2,3-diaza-cyclopropa[a]pentalene-4-carboxylic Acid ((S)-1-Hydroxymethyl-2,2-dimethyl-propyl)-amide], the “paw withdrawal threshold (PWT), individual values” in data set [4] (1 mpk Compound 699 orally) is 6.66 and 5.56 and 11.69 and 5.54 and 7.80 and 3.58; in [4] (10 mpk Compound 699 orally (positive control)), 6.58 g and 7.8 g; in data set [4] (10 mpk Compound 699 orally (positive control), in g) it was 15.00 (3×) and 11.69. In data set [5], the “analgesic efficacy, tactile allodynia (50% withdrawal threshold)” value was “robust and sustained analgesic efficacy over 6 hours”.
On to `CC(C)(NC(=O)c1nn(-c2c[n+]([O-])ccn2)c2c1C[C@@H]1C[C@H]21)C(F)(F)F` [Compound 919, (1aS,5aS)-2-(4-Oxy-pyrazin-2-yl)-1a,2,5,5a-tetrahydro-1H-2,3-diaza-cyclopropa[a]pentalene-4-carboxylic Acid (2,2,2-Trifluoro-1,1-dimethyl-ethyl)-amide], for which the “analgesic efficacy, tactile allodynia (50% withdrawal threshold)” value in [5] was “robust and sustained analgesic efficacy over 6 hours”. Besides, at human CB2 receptor, the pEC50 (commonly the EC50 on a negative log10 scale, so that one unit is a factor of ten) was 8.55.
In the case of `COc1ccc2c(c1)c(CCN1CCOCC1)c(C)n2C(=O)c1cccc(Cl)c1Cl` [GW405833], the “effect on hypersensitivity to mechanical stimuli” value in data set [6] (administered systemically) was “significantly reverses hypersensitivity to mechanical stimuli”.
On to `CCCCCc1cc(O)c2c(c1)OC(C)(C)[C@@H]1CCC(C)=C[C@@H]21` [THC], for which the “effect against acute and chronic pain” value in data set [3] was “effective against acute and chronic pain”.
In turn, `O=C(N[C@H]1c2ccccc2C[C@H]1O)c1nn(-c2c[n+]([O-])ccn2)c2c1C[C@@H]1C[C@H]21` [Compound 921, (1aS,5aS)-2-(4-Oxy-pyrazin-2-yl)-1a,2,5,5a-tetrahydro-1H-2,3-diaza-cyclopropa[a]pentalene-4-carboxylic Acid ((1S,2R)-2-Hydroxy-indan-1-yl)-amide] showed a pEC50 on human CB2 receptor of 8.66.
As for `CN1CCCCC1Cn1cc(C(=O)c2cc([N+](=O)[O-])ccc2I)c2ccccc21` (stereo not drawn) [AM1241], in data set [6] (local (subcutaneous) or systemic administration), the “effect on tactile and thermal hypersensitivity” value is “reverses tactile and thermal hypersensitivity”. Further, the “effect on induced hyperalgesia” value in [7] is on record as “suppresses hyperalgesia”.
Turning to `COc1ccc(C(=O)c2c(C)n(CCN3CCOCC3)c3cc(I)ccc23)cc1` [AM630], the “effect on the reversal of hypersensitivity by AM1241” value in [6] (treatment with CB2-selective antagonist) is on record as “inhibited”.
For `CN1CC[C@]23c4c5ccc(O)c4O[C@H]2[C@@H](O)C=C[C@H]3[C@H]1C5` [morphine, reference compound], in data set [4] (1 mpk morphine intraperitoneally), the “paw withdrawal threshold (PWT), individual values” was 4.25 and 8.44 and 5.57 and 5.44 and 4.72 and 2.02.
As to `CCCCC/C=C\C/C=C\C/C=C\C/C=C\CCCC(=O)NCCO` [anandamide], the “effect against acute and chronic pain” value in data set [3] was “effective against acute and chronic pain”.
Consider `O=C(NC1(C(F)(F)F)CCC1)c1nn(-c2cnccn2)c2c1C[C@@H]1C[C@H]21` [Compound 926, (1aS,5aS)-2-Pyrazin-2-yl-1a,2,5,5a-tetrahydro-1H-2,3-diaza-cyclopropa[a]pentalene-4-carboxylic Acid (1-Trifluoromethyl-cyclobutyl)-amide], for which, on human CB2 receptor, the pEC50 is 8.39.
As to `CCCCCCC(C)(C)c1ccc([C@@H]2C[C@H](O)CC[C@H]2CCCO)c(O)c1` [CP55,940], the “effect against acute and chronic pain” value in data set [3] is “effective against acute and chronic pain”.
Consider `CCCCC/C=C\C/C=C\C/C=C\C/C=C\CCCC(=O)NCCCl` [arachidonyl-2-chloroethylamide], for which, in the data set on CB1, the effect on pain result was “reduces pain”.
At human CB2 receptor, `O=C(NC1(C(F)(F)F)CCC1)c1nn(-c2c[n+]([O-])ccn2)c2c1C[C@@H]1C[C@H]21` [Compound 765, (1aS,5aS)-2-(4-Oxy-pyrazin-2-yl)-1a,2,5,5a-tetrahydro-1H-2,3-diaza-cyclopropa[a]pentalene-4-carboxylic Acid (1-Trifluoromethyl-cyclobutyl)-amide] had a pEC50 of 8.96.
